Assay [1] concerns T1D-prone NOD mice. To be noted: monotherapy, Hadjiyanni I et al 2008; cited from earlier work.
Assay [2] has as its system INS-1 cells. Description: GABA production and release from insulin-secreting beta-cells (Free Amino Acid Analysis). It counts as cell-based. As to the method: In these in vitro assays using GLP-1-secreting and/or insulin-secreting cells, it was shown that the production and secretion of GLP-1 in the gut-derived cells (STC-1) were modulated by GABA, and the production and release of GABA from the beta-cells were also modulated by GLP-1. The specificity of these assays was determined by including the GABAAR antagonists or GLP-1 receptor antagonist in the assays.
The Free Amino Acid Analysis was performed on a Waters Acquity UPLC System. The Waters Acquity UPLC system employed consists of a Binary Solvent Manager, a Sample Manager, a TUV Detector and a Waters Acquity UPLC BEH C18 column (2.1×100 mm). Data was collected, stored and processed using Waters Empower 2 Chromatography software. Drying was done using a Tomy CC-181 Centrifugal Concentrator with a Sargent-Welch Model 8821 Vacuum pump. The operational procedures are as following: an aliquot of the sample was transferred into a 6×55 mm glass culture tube and dried under vacuum using a centrifugal evaporator. After drying, the sample was treated with a redrying solution consisting of methanol:water:triethylamine (2:2:1), vortex-mixed and dried under vacuum for 15 minutes. […] The derivatized amino acids were detected at 254 nm.
GABA concentrations were determined by the Free Amino Acid Analysis. […]

As to “GLP-1: incretin hormone glucagon-like peptide-1, SEQ ID NO: 1”, the “efficacy on diabetes onset in T1D-prone NOD mice” value in assay [1] is “only marginally effective”. The “production and release of GABA from the beta-cells” value in assay [2] is given as “modulated”.

The record behind these values is US9463174B2, “Pharmaceutical composition for the treatment of type-1 diabetes” (priority 2008, dated 2016).
